Measured values as given in patent US8710045B2, “Agents for preventing and treating disorders involving modulation of the ryanodine receptors” (The Trustees of Columbia University in the City of New York, priority 2004, dated 2014).

Target: T1, RyR1 (Mus musculus, UniProt E9PZQ0)
T1 construct: RyR1 was immunoprecipitated from soleus muscle homogenates of mice following 21 days of exercise; from tissue; host or cells: mouse hind-limb skeletal muscle (soleus, EDL; SR microsomes for bilayer recording)
T1 sequence (E9PZQ0 whole entry): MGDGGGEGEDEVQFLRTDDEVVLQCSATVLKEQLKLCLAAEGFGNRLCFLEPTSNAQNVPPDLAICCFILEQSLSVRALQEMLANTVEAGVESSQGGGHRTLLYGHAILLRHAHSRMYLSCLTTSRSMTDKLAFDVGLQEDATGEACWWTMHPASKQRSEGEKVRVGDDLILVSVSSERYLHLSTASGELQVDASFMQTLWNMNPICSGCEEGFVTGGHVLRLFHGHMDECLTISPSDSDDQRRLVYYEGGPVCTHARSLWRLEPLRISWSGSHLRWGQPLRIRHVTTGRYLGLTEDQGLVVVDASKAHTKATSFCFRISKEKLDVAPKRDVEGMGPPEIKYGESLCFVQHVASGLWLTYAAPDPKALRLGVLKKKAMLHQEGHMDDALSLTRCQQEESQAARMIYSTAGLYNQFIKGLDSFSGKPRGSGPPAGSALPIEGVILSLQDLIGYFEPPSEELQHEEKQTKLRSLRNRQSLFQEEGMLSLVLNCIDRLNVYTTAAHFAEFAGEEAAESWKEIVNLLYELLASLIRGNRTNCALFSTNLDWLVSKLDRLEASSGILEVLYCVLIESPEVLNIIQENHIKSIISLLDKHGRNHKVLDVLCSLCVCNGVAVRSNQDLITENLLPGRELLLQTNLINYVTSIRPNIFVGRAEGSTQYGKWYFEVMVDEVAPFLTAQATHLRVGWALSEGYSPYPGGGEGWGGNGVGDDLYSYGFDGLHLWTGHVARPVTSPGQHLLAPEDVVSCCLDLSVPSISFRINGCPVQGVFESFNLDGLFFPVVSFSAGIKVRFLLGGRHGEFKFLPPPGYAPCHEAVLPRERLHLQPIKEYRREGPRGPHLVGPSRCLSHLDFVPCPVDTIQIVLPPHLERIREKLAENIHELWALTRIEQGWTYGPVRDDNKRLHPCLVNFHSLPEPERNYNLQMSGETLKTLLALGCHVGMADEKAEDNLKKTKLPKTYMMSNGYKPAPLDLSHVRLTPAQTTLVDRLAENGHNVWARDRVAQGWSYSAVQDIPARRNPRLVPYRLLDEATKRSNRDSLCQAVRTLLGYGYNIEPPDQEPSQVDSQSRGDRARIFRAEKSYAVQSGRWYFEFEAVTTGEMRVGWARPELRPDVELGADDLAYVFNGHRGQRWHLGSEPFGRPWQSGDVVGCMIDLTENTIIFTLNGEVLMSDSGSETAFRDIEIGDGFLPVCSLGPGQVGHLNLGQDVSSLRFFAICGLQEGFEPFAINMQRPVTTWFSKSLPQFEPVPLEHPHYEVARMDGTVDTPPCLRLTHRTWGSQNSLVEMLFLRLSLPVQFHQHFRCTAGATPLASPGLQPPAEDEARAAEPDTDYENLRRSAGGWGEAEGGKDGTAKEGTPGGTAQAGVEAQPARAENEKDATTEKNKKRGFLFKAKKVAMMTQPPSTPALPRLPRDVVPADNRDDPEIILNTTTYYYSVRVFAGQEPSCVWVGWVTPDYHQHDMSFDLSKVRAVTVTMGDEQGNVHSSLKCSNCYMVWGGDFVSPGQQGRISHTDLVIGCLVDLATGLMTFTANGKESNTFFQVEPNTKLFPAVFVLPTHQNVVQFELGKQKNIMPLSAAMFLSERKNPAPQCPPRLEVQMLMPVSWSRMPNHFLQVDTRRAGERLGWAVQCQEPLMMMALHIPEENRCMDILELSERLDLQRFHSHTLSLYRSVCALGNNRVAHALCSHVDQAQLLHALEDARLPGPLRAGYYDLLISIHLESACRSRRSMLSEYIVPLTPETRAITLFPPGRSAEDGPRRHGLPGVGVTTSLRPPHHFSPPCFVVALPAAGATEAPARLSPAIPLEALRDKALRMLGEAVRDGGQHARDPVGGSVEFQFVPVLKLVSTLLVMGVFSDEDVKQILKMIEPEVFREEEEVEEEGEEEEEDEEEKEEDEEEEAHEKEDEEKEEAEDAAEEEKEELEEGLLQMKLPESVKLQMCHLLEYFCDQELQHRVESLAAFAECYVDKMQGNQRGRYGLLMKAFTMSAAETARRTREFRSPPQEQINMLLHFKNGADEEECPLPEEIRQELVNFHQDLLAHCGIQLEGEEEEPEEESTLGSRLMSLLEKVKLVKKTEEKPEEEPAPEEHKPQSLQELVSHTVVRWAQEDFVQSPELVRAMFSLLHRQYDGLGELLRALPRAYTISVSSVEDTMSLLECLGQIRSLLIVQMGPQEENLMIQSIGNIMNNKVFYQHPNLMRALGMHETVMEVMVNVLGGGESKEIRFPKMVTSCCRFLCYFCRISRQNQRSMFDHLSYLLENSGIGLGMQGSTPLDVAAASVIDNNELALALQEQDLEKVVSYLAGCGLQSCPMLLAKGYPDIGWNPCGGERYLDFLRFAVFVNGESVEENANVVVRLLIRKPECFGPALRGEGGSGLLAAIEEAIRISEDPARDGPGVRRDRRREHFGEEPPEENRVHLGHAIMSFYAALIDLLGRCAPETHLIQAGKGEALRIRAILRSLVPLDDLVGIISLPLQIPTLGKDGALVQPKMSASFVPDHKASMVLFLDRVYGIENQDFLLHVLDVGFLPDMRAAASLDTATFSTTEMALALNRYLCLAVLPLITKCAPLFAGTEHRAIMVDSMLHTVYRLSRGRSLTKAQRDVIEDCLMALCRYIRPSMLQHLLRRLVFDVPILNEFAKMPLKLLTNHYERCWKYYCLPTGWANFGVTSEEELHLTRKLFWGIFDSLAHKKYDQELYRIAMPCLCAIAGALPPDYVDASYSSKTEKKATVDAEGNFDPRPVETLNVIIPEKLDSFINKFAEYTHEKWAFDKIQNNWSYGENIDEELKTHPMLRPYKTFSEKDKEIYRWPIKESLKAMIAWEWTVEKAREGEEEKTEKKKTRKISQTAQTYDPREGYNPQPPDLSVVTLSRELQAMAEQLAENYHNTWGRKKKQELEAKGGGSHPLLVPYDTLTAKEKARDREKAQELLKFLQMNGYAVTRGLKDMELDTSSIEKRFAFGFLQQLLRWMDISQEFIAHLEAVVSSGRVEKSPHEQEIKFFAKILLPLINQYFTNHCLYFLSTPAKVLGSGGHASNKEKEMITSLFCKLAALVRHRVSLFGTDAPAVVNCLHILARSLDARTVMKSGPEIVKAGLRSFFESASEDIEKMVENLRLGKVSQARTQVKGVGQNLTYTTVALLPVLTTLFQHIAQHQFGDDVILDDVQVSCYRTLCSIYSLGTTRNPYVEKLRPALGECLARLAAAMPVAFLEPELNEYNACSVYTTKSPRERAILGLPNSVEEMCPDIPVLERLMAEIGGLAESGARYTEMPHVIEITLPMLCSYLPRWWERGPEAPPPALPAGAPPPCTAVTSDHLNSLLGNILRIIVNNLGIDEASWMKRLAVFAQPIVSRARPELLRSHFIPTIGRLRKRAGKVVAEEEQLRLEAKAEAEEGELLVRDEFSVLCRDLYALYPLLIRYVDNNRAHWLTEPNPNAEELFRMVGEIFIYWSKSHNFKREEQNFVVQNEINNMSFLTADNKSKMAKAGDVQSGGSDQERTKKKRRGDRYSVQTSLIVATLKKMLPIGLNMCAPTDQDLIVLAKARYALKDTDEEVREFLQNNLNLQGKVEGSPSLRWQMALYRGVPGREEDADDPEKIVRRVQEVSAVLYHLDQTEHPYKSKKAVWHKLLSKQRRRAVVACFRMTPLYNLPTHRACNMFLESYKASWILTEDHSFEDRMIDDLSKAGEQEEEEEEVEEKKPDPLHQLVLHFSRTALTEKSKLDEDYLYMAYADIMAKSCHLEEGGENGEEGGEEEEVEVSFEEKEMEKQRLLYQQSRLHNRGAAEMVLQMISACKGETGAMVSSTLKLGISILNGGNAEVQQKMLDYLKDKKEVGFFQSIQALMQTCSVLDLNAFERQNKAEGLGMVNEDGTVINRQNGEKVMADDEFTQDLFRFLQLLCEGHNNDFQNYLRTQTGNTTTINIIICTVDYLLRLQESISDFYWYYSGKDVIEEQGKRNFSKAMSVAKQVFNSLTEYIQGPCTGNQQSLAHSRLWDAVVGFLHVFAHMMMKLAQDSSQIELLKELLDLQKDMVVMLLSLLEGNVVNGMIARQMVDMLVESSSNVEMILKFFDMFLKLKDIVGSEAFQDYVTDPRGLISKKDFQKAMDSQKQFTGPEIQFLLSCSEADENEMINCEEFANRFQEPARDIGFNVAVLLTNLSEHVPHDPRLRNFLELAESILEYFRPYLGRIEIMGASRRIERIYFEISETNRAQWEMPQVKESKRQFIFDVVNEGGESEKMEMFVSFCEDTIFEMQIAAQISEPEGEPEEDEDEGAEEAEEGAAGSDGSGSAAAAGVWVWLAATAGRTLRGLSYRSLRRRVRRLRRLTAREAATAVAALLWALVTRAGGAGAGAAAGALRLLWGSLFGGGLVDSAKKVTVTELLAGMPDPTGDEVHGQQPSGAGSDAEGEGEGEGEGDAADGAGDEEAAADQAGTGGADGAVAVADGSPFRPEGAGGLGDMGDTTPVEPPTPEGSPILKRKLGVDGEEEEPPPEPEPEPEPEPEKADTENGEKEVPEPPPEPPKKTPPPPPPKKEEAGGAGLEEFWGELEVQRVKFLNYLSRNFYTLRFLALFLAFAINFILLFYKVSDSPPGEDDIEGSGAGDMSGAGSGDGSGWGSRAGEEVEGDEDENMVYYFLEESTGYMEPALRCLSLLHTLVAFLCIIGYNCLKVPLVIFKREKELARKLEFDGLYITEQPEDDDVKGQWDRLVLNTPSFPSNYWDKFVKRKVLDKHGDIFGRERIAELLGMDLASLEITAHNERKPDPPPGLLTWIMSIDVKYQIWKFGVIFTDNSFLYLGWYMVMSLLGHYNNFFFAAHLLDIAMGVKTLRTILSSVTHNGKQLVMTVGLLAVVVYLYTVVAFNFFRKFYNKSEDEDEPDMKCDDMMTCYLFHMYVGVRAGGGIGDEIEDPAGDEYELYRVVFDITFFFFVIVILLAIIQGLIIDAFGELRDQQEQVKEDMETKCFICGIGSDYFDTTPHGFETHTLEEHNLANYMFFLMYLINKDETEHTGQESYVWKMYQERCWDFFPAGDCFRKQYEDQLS
T1 sequence (P26883 2-108 partner limits assumed): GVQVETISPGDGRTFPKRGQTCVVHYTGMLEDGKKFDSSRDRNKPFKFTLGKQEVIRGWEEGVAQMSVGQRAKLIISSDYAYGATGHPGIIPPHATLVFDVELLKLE
Test: RyR1 single channel recording in planar lipid bilayers from exercised mice
Assay type: in vivo
Settings: 90 nM [Ca2+]cis
Method: RyR1 channels were reconstituted by spontaneous fusion of microsomes into the planar lipid bilayer (a mixture of phosphatidylethanolamine and phosphatidylserine in a 3:1 ratio, Avanti Polar Lipids). Planar lipid bilayers were formed across a 200 μm aperture in a polysulfonate cup (Warner Instruments, Inc.), which separated two bathing solutions (1 mM EGTA, 250/125 mM HEPES/Tris, 50 mM KCl, 0.5 mM CaCl2, pH 7.35 as cis solution and 53 mM Ba(OH)2, 50 mM KCl, 250 mM HEPES, pH 7.35 as trans solution). After incorporation, RyR1 channel activity was recorded continuously for at least 10 minutes. The concentration of free Ca^2+ in the cis chamber was calculated with WinMaxC program (version 2.50) (Bers, Patton et al. 1994). Single channel currents were recorded at 0 mV using the Axopatch 200A patch-clamp amplifier (Axon Instruments, USA) in gap-free mode, filtered at 1 kHz, and digitized at 10 kHz. Data acquisition was performed using Digidata 1322A and Axoscope 9 software (Axon Instruments, USA). The recordings were analyzed using Clampfit 10.1 (Molecular Devices, USA) and Origin software (ver. 6.0, Microcal Software, Inc., USA).
Chronic exercise results in leaky RyR1 Channels which can be reversed by calstabin1 rebinding: A critical issue is whether the biochemical changes in the RyR1 macromolecular complex identified during exercise result in changes in RyR1 channel activity. […]

SMILES: COc1ccc2c(c1)CN(C)CCS2 [S107]
- duration of the channel dwell times: Neither chronic exercise nor S107 had any effect
- RyR1 open probability (Ex+S107 vs Ex+veh, p<0.005): significant decrease
